Measured values from patent US9872829B2, “Core sheath drug delivery devices” (Chemo Research, S.L., priority 2012, dated 2018).

Settings: 21 days
Procedure: Etonogestrel (ETO) solubility in the hydrophilic polyurethane, Hydrothane AL 25-80A, was determined by evaluating its in-vitro elution (IVE) from core sheath IVRs containing ETO in the core at various loadings.
The core polymer was Hydrothane AL 25-80A and the sheath polymer EVA VA content 28% w/w.

SMILES: C#C[C@]1(O)CC[C@H]2[C@@H]3CCc4cc(O)ccc4[C@H]3CC[C@@]21C [EE, Ethinyl Estradiol]
- Csat in Hydrothane AL 25-80A (concentration concluded to be below Csat): > 0.25%

SMILES: C#C[C@]1(O)CC[C@H]2[C@@H]3CCC4=CC(=O)CC[C@@H]4[C@H]3C(=C)C[C@@]21CC [ETO, Etonogestrel]
- Csat in Hydrothane AL 25-80A (concentration concluded to be below Csat): > 1.00%
